The assay addresses T1, RXFP1 (Homo sapiens, UniProt Q9HBX9).
T1 construct: OVCAR5 cells expressing endogenous RXFP1; endogenous in cells; host or cells: OVCAR5 cells
T1 sequence (Q9HBX9 1-757): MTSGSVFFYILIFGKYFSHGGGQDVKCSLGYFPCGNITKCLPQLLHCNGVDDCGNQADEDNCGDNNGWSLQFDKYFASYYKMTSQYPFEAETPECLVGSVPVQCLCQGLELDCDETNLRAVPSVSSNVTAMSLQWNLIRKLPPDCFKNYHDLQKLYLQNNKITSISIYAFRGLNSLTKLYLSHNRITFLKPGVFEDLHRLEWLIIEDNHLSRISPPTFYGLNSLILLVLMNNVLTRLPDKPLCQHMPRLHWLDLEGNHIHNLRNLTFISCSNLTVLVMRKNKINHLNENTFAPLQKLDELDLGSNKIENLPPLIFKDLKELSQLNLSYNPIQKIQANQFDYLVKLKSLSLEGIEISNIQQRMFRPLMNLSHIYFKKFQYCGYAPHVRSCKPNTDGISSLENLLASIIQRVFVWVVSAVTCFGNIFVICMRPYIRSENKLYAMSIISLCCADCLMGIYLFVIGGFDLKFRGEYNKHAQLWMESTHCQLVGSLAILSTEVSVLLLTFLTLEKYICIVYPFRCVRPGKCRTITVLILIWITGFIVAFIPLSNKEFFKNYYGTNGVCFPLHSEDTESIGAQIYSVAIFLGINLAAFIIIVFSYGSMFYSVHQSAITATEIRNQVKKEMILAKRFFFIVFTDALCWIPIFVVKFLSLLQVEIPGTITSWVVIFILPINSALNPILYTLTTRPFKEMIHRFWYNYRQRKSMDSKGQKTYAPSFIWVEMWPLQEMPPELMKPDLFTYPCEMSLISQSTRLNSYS
Nature of the assay: OVCAR5 cAMP assay (HTRF), RXFP1 agonist activity. It is filed as cell-based. The following applies: OVCAR-5; maximal cAMP relative to H2-relaxin maximum (100%); read-out: EMax, OVCAR 5 cells (cAMP). In outline: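 cAMP accumulation readout: after 1 mM IBMX for 40 min, endogenous-RXFP1 OVCAR5 cells got rising peptide concentrations without FCS, 30 min, 37° C, then lysis with HTRF cAMP reagents. Nonlinear regression gave EC50; Emax expressed relative to H2-relaxin maximum, same occasion.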
(In general: cAMP levels reflect the balance of adenylyl cyclase and phosphodiesterase activity.)

SMILES strings stand for the structures. *1 amine or outer side, *2 acyl side, *3 side chain or, on linkers, in order; H or OH if unused. Where a SMILES comes first, the peptide text is derived from it. Side-chain parts run from the residue outwards. [ ]: non-standard residue; d: D form. The star is where a group is joined. X13 = CCCCCCCCCCCCCCCC(=O)N[C@@H](CCC(=O)N[C@@H](CCC(=O)N[C@@H](CCC(=O)NCCCC[C@H](NC(=O)COCC(=O)NCCCOCCOCCOCCCN*)C(N)=O)C(=O)O)C(=O)O)C(=O)O; PEG24 = NCCOCCOCCOCCOCCOCCOCCOCCOCCOCCOCCOCCOCCOCCOCCOCCOCCOCCOCCOCCOCCOCCOCCOCCOCCC(=O)O; PEG12 = NCCOCCOCCOCCOCCOCCOCCOCCOCCOCCOCCOCCOCCC(=O)O; γGlu = O=C(O)[C@H](CCC(=O)[*:2])N[*:1]; 1Nal = N[C@@H](Cc1cccc2ccccc12)C(=O)O; Stearoyl = CCCCCCCCCCCCCCCCCC(=O)*; Palmitoyl = CCCCCCCCCCCCCCCC(=O)*; Myristoyl = CCCCCCCCCCCCCC(=O)*; αMeK = C[C@](N)(CCCCN)C(=O)O; Nle = CCCC[C@H](N)C(=O)O; AEEA = NCCOCCOCC(=O)O; Aib = CC(C)(N)C(=O)O

As to `CCCCCCCCCCCCCCCC(=O)N[C@@H](CCC(=O)N[C@@H](CCC(=O)N[C@@H](CCC(=O)NCCCC[C@H](NC(=O)COCC(=O)NCCCOCCOCCOCCCNC(=O)[C@H](CCCCNC(C)=O)NC(=O)[C@H](CCCCN)NC(=O)[C@H](CCCNC(=N)N)NC(=O)C(C)(C)NC(=O)[C@H](CO)NC(=O)[C@H](Cc1c[nH]c2ccccc12)NC(=O)[C@@H](NC(=O)[C@H](CO)NC(=O)[C@H](CCCC)NC(=O)CNC(=O)[C@H](CCC(=O)O)NC(=O)C(C)(C)NC(=O)C(C)(C)NC(=O)[C@@H](NC(=O)[C@H](CCCCNC(C)=O)NC(=O)[C@H](C)NC(=O)[C@H](CCCNC(=N)N)NC(=O)[C@@H](NC(=O)[C@H](CCCCN)NC(=O)[C@H](CCC(=O)O)NC(=O)[C@H](CCCNC(=N)N)NC(=O)CNC(=O)[C@H](CCC(=O)O)NC(=O)[C@H](CC(C)C)NC(C)=O)C(C)C)[C@@H](C)CC)[C@@H](C)O)C(N)=O)C(=O)O)C(=O)O)C(=O)O` [compound 175] (Ac-LEGREKVRAK(Ac)I[Aib][Aib]EG[Nle]STWS[Aib]RKK(Ac)-X13), the maximal effect (Emax) stood at 87%.
For `CCCCCCCCCCCCCC(=O)N[C@@H](CCC(=O)N[C@@H](CCC(=O)N[C@@H](CCC(=O)N[C@@H](CCC(=O)NCCCC[C@H](NC(=O)COCCOCCNC(=O)COCCOCCNC(=O)COCCOCCNC(=O)COCCOCCNC(=O)[C@H](CCCCNC(C)=O)NC(=O)[C@H](C)NC(=O)[C@H](CCCNC(=N)N)NC(=O)[C@](C)(CCCCN)NC(=O)[C@H](CO)NC(=O)[C@H](Cc1ccccc1)NC(=O)[C@@H](NC(=O)[C@H](CO)NC(=O)[C@H](CCC(N)=O)NC(=O)CNC(=O)[C@H](CCC(=O)O)NC(=O)C(C)(C)NC(=O)C(C)(C)NC(=O)[C@@H](NC(=O)[C@H](CCCCNC(C)=O)NC(=O)[C@H](C)NC(=O)[C@H](CCCNC(=N)N)NC(=O)[C@@H](NC(=O)[C@H](CCCCN)NC(=O)[C@H](CCC(=O)O)NC(=O)[C@H](CCCNC(=N)N)NC(=O)CNC(=O)[C@H](CCC(=O)O)NC(=O)[C@H](CC(C)C)NC(C)=O)C(C)C)[C@@H](C)CC)[C@@H](C)O)C(N)=O)C(=O)O)C(=O)O)C(=O)O)C(=O)O` [compound 190] (Ac-LEGREKVRAK(Ac)I[Aib][Aib]EGQSTFS[αMeK]RAK(Ac)[AEEA][AEEA][AEEA][AEEA]K([γGlu-γGlu-γGlu-γGlu-Myristoyl])-NH2) the value was 93%; for `CCCCCCCCCCCCCCCC(=O)NCCCC[C@H](NC(=O)[C@H](CCCCN)NC(=O)[C@H](CCCNC(=N)N)NC(=O)C(C)(C)NC(=O)[C@H](CO)NC(=O)[C@H](Cc1c[nH]c2ccccc12)NC(=O)[C@@H](NC(=O)[C@H](CO)NC(=O)[C@H](CCCC)NC(=O)CNC(=O)[C@H](CCC(=O)O)NC(=O)C(C)(C)NC(=O)C(C)(C)NC(=O)[C@@H](NC(=O)[C@H](C)NC(=O)[C@H](C)NC(=O)[C@H](CCCNC(=N)N)NC(=O)[C@@H](NC(=O)[C@H](CCCCN)NC(=O)[C@H](CCC(=O)O)NC(=O)[C@H](CCCNC(=N)N)NC(=O)CNC(=O)[C@H](CCC(=O)O)NC(=O)[C@H](CC(C)C)NC(C)=O)C(C)C)[C@@H](C)CC)[C@@H](C)O)C(N)=O` [compound 1] (Ac-LEGREKVRAAI[Aib][Aib]EG[Nle]STWS[Aib]RKK(Palmitoyl)-NH2), 85%.
For `CCCCCCCCCCCCCCCC(=O)N[C@@H](CCC(=O)N[C@@H](CCC(=O)N[C@@H](CCC(=O)NCCCC[C@H](NC(=O)COCCOCCNC(=O)COCCOCCNC(=O)COCCOCCNC(=O)COCCOCCNC(=O)[C@H](CCCCNC(C)=O)NC(=O)[C@H](CCCCN)NC(=O)[C@H](CCCNC(=N)N)NC(=O)C(C)(C)NC(=O)[C@H](CO)NC(=O)[C@H](Cc1ccccc1)NC(=O)[C@@H](NC(=O)[C@H](CO)NC(=O)[C@H](CCCC)NC(=O)CNC(=O)[C@H](CCC(=O)O)NC(=O)C(C)(C)NC(=O)C(C)(C)NC(=O)[C@@H](NC(=O)[C@H](CCCCNC(C)=O)NC(=O)[C@H](C)NC(=O)[C@H](CCCNC(=N)N)NC(=O)[C@@H](NC(=O)[C@H](CCCCN)NC(=O)[C@H](CCC(=O)O)NC(=O)[C@H](CCCNC(=N)N)NC(=O)CNC(=O)[C@H](CCC(=O)O)NC(=O)[C@H](CC(C)C)NC(C)=O)C(C)C)[C@@H](C)CC)[C@@H](C)O)C(N)=O)C(=O)O)C(=O)O)C(=O)O` [compound 144] (Ac-LEGREKVRAK(Ac)I[Aib][Aib]EG[Nle]STFS[Aib]RKK(Ac)[AEEA][AEEA][AEEA][AEEA]K([γGlu-γGlu-γGlu-Palmitoyl])-NH2) the value was 94%; for `CCCCCCCCCCCCCCCC(=O)N[C@@H](CCC(=O)N[C@@H](CCC(=O)N[C@@H](CCC(=O)NCCCC[C@H](NC(=O)CCOCCOCCOCCOCCOCCOCCOCCOCCOCCOCCOCCOCCOCCOCCOCCOCCOCCOCCOCCOCCOCCOCCOCCOCCNC(=O)[C@H](CCCCN)NC(=O)[C@H](CCCNC(=N)N)NC(=O)C(C)(C)NC(=O)[C@H](CO)NC(=O)[C@H](Cc1c[nH]c2ccccc12)NC(=O)[C@@H](NC(=O)[C@H](CO)NC(=O)[C@H](CCSC)NC(=O)CNC(=O)[C@H](CCC(=O)O)NC(=O)C(C)(C)NC(=O)C(C)(C)NC(=O)[C@@H](NC(=O)[C@H](CCC(N)=O)NC(=O)[C@H](C)NC(=O)[C@H](CCCNC(=N)N)NC(=O)[C@@H](NC(=O)[C@H](CCCCN)NC(=O)[C@H](CCC(=O)O)NC(=O)[C@H](CCCNC(=N)N)NC(=O)CNC(=O)[C@H](CCC(=O)O)NC(=O)[C@H](CC(C)C)NC(C)=O)C(C)C)[C@@H](C)CC)[C@@H](C)O)C(N)=O)C(=O)O)C(=O)O)C(=O)O` [compound 47] (Ac-LEGREKVRAQI[Aib][Aib]EGMSTWS[Aib]RK[PEG24]K([γGlu-γGlu-γGlu-Palmitoyl])-NH2), 100%.
Take `CCCCCCCCCCCCCCCCCC(=O)NCCCC[C@H](NC(=O)CCOCCOCCOCCOCCOCCOCCOCCOCCOCCOCCOCCOCCNC(=O)[C@H](CCCCNC(C)=O)NC(=O)[C@H](CCCCN)NC(=O)[C@H](CCCNC(=N)N)NC(=O)C(C)(C)NC(=O)[C@H](CO)NC(=O)[C@H](Cc1c[nH]c2ccccc12)NC(=O)[C@@H](NC(=O)[C@H](CO)NC(=O)[C@H](CCCC)NC(=O)CNC(=O)[C@H](CCC(=O)O)NC(=O)C(C)(C)NC(=O)C(C)(C)NC(=O)[C@@H](NC(=O)[C@H](CCC(N)=O)NC(=O)[C@H](C)NC(=O)[C@H](CCCNC(=N)N)NC(=O)[C@@H](NC(=O)[C@H](CCCCN)NC(=O)[C@H](CCC(=O)O)NC(=O)[C@H](CCCNC(=N)N)NC(=O)CNC(=O)[C@H](CCC(=O)O)NC(=O)[C@H](CC(C)C)NC(C)=O)C(C)C)[C@@H](C)CC)[C@@H](C)O)C(N)=O` [compound 21] (Ac-LEGREKVRAQI[Aib][Aib]EG[Nle]STWS[Aib]RKK(Ac)[PEG12]K(Stearoyl)-NH2): the Emax is 88%.
Turning to `CCCCCCCCCCCCCCCCCC(=O)N[C@@H](CCC(=O)N[C@@H](CCC(=O)N[C@@H](CCC(=O)NCCOCCOCC(=O)NCCOCCOCC(=O)NCCOCCOCC(=O)NCCCC[C@H](NC(=O)[C@H](CCCCNC(C)=O)NC(=O)[C@H](CCCCN)NC(=O)[C@H](CCCNC(=N)N)NC(=O)C(C)(C)NC(=O)[C@H](CO)NC(=O)[C@H](Cc1cccc2ccccc12)NC(=O)[C@@H](NC(=O)[C@H](CO)NC(=O)[C@H](CCCC)NC(=O)CNC(=O)[C@H](CCC(=O)O)NC(=O)C(C)(C)NC(=O)C(C)(C)NC(=O)[C@@H](NC(=O)[C@H](CCCCNC(C)=O)NC(=O)C(C)(C)NC(=O)[C@H](CCCNC(=N)N)NC(=O)[C@@H](NC(=O)[C@H](CCCCN)NC(=O)[C@H](CCC(=O)O)NC(=O)[C@H](CCCNC(=N)N)NC(=O)CNC(=O)[C@H](CCC(=O)O)NC(=O)[C@H](CC(C)C)NC(C)=O)C(C)C)[C@@H](C)CC)[C@@H](C)O)C(N)=O)C(=O)O)C(=O)O)C(=O)O` [compound 85] (Ac-LEGREKVR[Aib]K(Ac)I[Aib][Aib]EG[Nle]ST[1Nal]S[Aib]RKK(Ac)K([AEEA-AEEA-AEEA-γGlu-γGlu-γGlu-Stearoyl])-NH2), the Emax is 75%.

By Emax is commonly meant the size of the effect at its maximum, as opposed to the concentration needed.
